The values below come from article PMC9332213, “Simple Detection of DNA Methyltransferase with an Integrated Padlock Probe” (Biosensors, 2022).

The target in this assay is T1, M.SssI (Spiroplasma monobiae, UniProt P15840).
T1 construct: gene sssIM
Kind of assay: padlock probe/RCA fluorescence methyltransferase activity assay with commercial M.SssI ([…] U/mL). The assay is classed as biochemical.

T1 sequence (P15840 whole entry): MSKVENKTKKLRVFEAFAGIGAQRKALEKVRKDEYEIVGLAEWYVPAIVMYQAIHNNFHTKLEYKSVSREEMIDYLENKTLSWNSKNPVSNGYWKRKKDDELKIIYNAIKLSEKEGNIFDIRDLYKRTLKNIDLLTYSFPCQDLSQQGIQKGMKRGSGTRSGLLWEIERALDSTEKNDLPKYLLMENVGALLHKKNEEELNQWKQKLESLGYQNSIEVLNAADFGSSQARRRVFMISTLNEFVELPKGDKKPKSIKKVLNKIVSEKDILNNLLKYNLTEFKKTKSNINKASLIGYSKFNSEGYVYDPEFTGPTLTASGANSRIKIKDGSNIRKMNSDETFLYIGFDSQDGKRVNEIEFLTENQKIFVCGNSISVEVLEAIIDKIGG

What is called IC50 is the concentration that inhibits the measured activity by half. Compound `Nc1ncn([C@@H]2O[C@H](CO)[C@@H](O)[C@H]2O)c(=O)n1` [5-Aza, 5-Azacytidine] registered an IC50 of 4.91 µM.

In turn, `O=c1[nH]cc(F)c(=O)[nH]1` [5-F, 5-fluorouracil] displayed an IC50 of 8.84 µM.
